Source: patent publication US20260250318A1, “COMPOSITIONS AND METHODS FOR CROSSING THE BLOOD BRAIN BARRIER” (VOYAGER THERAPEUTICS, INC., priority 2022, published 2026)

Tested on: brain
Test: Maturation of TTM-001 capsid, NGS enrichment in brain of CD-1 Outbred mice
Format: in vivo
Details: NGS fold-enrichment of TTM-001 matured AAV capsid variants in the brain of CD-1 Outbred mice; intravenous 1.0×10^12 VG/dose; 14 days in life; RNA; relative to non-matured TTM-001 control
From the text: This Example describes maturation of the TTM-001 (SEQ ID NO: 981 (amino acid) and 983 (DNA), comprising SEQ ID NO: 941) and TTM-002 (SEQ ID NO: 982 (amino acid) and 984 (DNA), comprising SEQ ID NO: 2) capsid variants to further enhance their transduction and biodistribution in the central nervous system and evolve the AAV capsid variants to provide further cross-species compatibility. Two approaches were used to mature the TTM-001 and TTM-002 capsid sequences in order to randomize and mutate within and around the peptide insert comprised within loop IV of the capsid variant. […] In the first maturation approach, sets of three contiguous amino acids were randomized across the mutagenesis region in the TTM-001 and TTM-002 sequences, which spanned from position 450 to position 466, numbered according to SEQ ID NO: 981 and 982. In the second maturation approach, mutagenic primers were used to introduce point mutations at a low frequency, scattered across the mutagenesis region in the TTM-001 and TTM-002 sequences ranging from position 449 to position 466, numbered according to SEQ ID NO: 981 and 982. AAV capsid variants arising from each maturation approach for TTM-001 were pooled together and AAV capsid variants arising from each maturation approach for TTM-002 were also pooled together, for subsequent testing and characterization in mice.
The library of pooled matured AAV capsid variants generated from TTM-001 or library of pooled matured AAV capsid variants generated from the TTM-002 matured AAV capsid variant each were intravenously injected into the tail vein of three female CD-1 Outbred mice (Charles River) at a dose of 1.0×10^12 VG/dose. After 14-days in life, the brains of the mice were isolated and RNA was extracted. Following RNA recovery and RT-PCR amplification, a systematic NGS enrichment analysis was performed to calculate the fold enrichment ratio relative to the corresponding TTM-001 or TTM-002 control, and the peptides comprised within the variants were identified. The data for the TTM-001 matured capsid variants is provided in Table 13 and the data for the TTM-002 matured capsid variants is provided in Table 14.

Sequence | Fold enrichment over TTM-001 [fold]
KTINGSGSPHSKALRSQT | 2.648
KTINGSGSPHSKALRYQT | 3.076
KTINGSGSPHSKALWRQT | 2.015
KTINGSGSPHSKANKSQT | 2.056
KTINGSGSPHSKANRMQT | 2.508
KTINGSGSPHSKAPNHLT | 2.324
KTINGSGSPHSKAQAFRT | 2.022
KTINGSGSPHSKAQANRT | 2.255
KTINGSGSPHSKAQASKT | 2.546
KTINGSGSPHSKAQATRT | 2.019
KTINGSGSPHSKAQCLFT | 2.421
KTINGSGSPHSKAQCRLT | 2.304
KTINGSGSPHSKAQCYVT | 2.261
KTINGSGSPHSKAQEELT | 2.162
KTINGSGSPHSKAQFLRT | 2.156
KTINGSGSPHSKAQFRVT | 2.231
KTINGSGSPHSKAQFSLT | 2.000
KTINGSGSPHSKAQFSRT | 2.847
KTINGSGSPHSKAQFSVT | 2.015
KTINGSGSPHSKAQFTLT | 2.277
KTINGSGSPHSKAQFVLT | 2.006
KTINGSGSPHSKAQFVRT | 2.596
KTINGSGSPHSKAQFWVT | 2.050
KTINGSGSPHSKAQGFRT | 2.279
KTINGSGSPHSKAQGVKT | 2.002
KTINGSGSPHSKAQGVRT | 2.188

Sequence | Fold enrichment over TTM-001 [fold]
KTINGSGSPHSKAQHLRT | 2.741
KTINGSGSPHSKAQHSRT | 3.227
KTINGSGSPHSKAQILVT | 2.009
KTINGSGSPHSKAQIRLT | 3.279
KTINGSGSPHSKAQITLT | 3.177
KTINGSGSPHSKAQKRLT | 3.872
KTINGSGSPHSKAQKRST | 2.151
KTINGSGSPHSKAQLAKT | 2.238
KTINGSGSPHSKAQLFKT | 2.385
KTINGSGSPHSKAQLGKT | 2.000
KTINGSGSPHSKAQLGRT | 2.069
KTINGSGSPHSKAQLHRT | 2.618
KTINGSGSPHSKAQLILT | 2.358
KTINGSGSPHSKAQLIVT | 2.235
KTINGSGSPHSKAQLKLT | 2.125
KTINGSGSPHSKAQLLKT | 2.985
KTINGSGSPHSKAQLPWT | 2.169
KTINGSGSPHSKAQLRIT | 2.179
KTINGSGSPHSKAQLRKT | 2.689
KTINGSGSPHSKAQLRRT | 3.825
KTINGSGSPHSKAQLSIT | 2.784
KTINGSGSPHSKAQLSKT | 2.035
KTINGSGSPHSKAQLTLT | 2.641
KTINGSGSPHSKAQLTVT | 4.026
KTINGSGSPHSKAQLVKT | 2.376
KTINGSGSPHSKAQLVLT | 2.508

Sequence | Fold enrichment over TTM-001 [fold]
KTINGSGSPHSKAQLVVT | 3.654
KTINGSGSPHSKAQLYRT | 4.108
KTINGSGSPHSKAQMKCT | 2.039
KTINGSGSPHSKAQMVRT | 2.426
KTINGSGSPHSKAQNAKL | 2.486
KTINGSGSPHSKAQNAKS | 2.009
KTINGSGSPHSKAQNARH | 2.127
KTINGSGSPHSKAQNEVH | 2.272
KTINGSGSPHSKAQNKRS | 2.214
KTINGSGSPHSKAQNLRR | 2.231
KTINGSGSPHSKAQNRIR | 2.039
KTINGSGSPHSKAQNRKL | 2.084
KTINGSGSPHSKAQNRMR | 2.804
KTINGSGSPHSKAQNRRS | 2.613
KTINGSGSPHSKAQNSRR | 3.168
KTINGSGSPHSKAQNTRR | 2.013
KTINGSGSPHSKAQNVKL | 2.024
KTINGSGSPHSKAQNWRT | 2.125
KTINGSGSPHSKAQNYRA | 2.039
KTINGSGSPHSKAQPSKT | 2.339
KTINGSGSPHSKAQQSRT | 2.337
KTINGSGSPHSKAQRGMT | 2.231
KTINGSGSPHSKAQRHAT | 2.264
KTINGSGSPHSKAQRHVT | 3.404
KTINGSGSPHSKAQRKLT | 4.339
KTINGSGSPHSKAQRLRT | 4.322

Sequence | Fold enrichment over TTM-001 [fold]
KTINGSGSPHSKAQRLWT | 2.611
KTINGSGSPHSKAQRRLT | 4.227
KTINGSGSPHSKAQRRQT | 2.479
KTINGSGSPHSKAQRRST | 2.993
KTINGSGSPHSKAQRSRT | 3.585
KTINGSGSPHSKAQRWLT | 2.788
KTINGSGSPHSKAQSHRT | 2.084
KTINGSGSPHSKAQSLKT | 2.110
KTINGSGSPHSKAQSRRT | 3.372
KTINGSGSPHSKAQSSKT | 2.078
KTINGSGSPHSKAQSSRT | 2.575
KTINGSGSPHSKAQSVKT | 2.464
KTINGSGSPHSKAQSWRT | 2.596
KTINGSGSPHSKAQSYRT | 2.088
KTINGSGSPHSKAQTART | 2.363
KTINGSGSPHSKAQTFRT | 2.847
KTINGSGSPHSKAQTGRT | 2.371
KTINGSGSPHSKAQTMRT | 2.453
KTINGSGSPHSKAQTNRT | 2.510
KTINGSGSPHSKAQTSRT | 3.421
KTINGSGSPHSKAQTTRT | 2.385
KTINGSGSPHSKAQVCLT | 2.182
KTINGSGSPHSKAQVKLT | 2.564
KTINGSGSPHSKAQVLIT | 2.317
KTINGSGSPHSKAQVSIT | 2.028
KTINGSGSPHSKAQVSKT | 3.406

Sequence | Fold enrichment over TTM-001 [fold]
KTINGSGSPHSKAQVTLT | 2.179
KTINGSGSPHSKAQVVLT | 2.438
KTINGSGSPHSKAQVWFT | 2.181
KTINGSGSPHSKAQWLRT | 2.795
KTINGSGSPHSKAQWSVT | 2.501
KTINGSGSPHSKAQWVLT | 2.052
KTINGSGSPHSKAQYCLT | 2.628
KTINGSGSPHSKAQYRLT | 2.088
KTINGSGSPHSKAQYYVT | 6.283
KTINGSGSPHSKARANQT | 2.300
KTINGSGSPHSKARFSQT | 2.253
KTINGSGSPHSKARFTQT | 2.233
KTINGSGSPHSKARGIQT | 2.140
KTINGSGSPHSKARGQQT | 2.039
KTINGSGSPHSKARGTQT | 2.505
KTINGSGSPHSKARGVQT | 2.181
KTINGSGSPHSKARGYQT | 2.492
KTINGSGSPHSKARIMQT | 2.283
KTINGSGSPHSKARITQT | 2.525
KTINGSGSPHSKARIVQT | 3.287
KTINGSGSPHSKARKLQT | 2.458
KTINGSGSPHSKARLAQT | 2.007
